Earlier results on two compounds are cited in patent publication US10960001B2, “Opioid agonist / antagonist combination dosage forms” (KASHIV PHARMA LLC, priority 2017, dated 2021).

For data set [1] the following is noted: 25° C.

Turning to `C=CCN1CC[C@]23c4c5ccc(O)c4O[C@H]2C(=O)CC[C@@]3(O)[C@H]1C5` [Naloxone free base, naloxone], the solubility in water result in data set [1] is given as “about 1.4 mg/mL”.

For the compound `C=CCN1CC[C@]23c4c5ccc(O)c4O[C@H]2C(=O)CC[C@@]3(O)[C@H]1C5` [Naloxone, naloxone], the oral bioavailability (after intake of therapeutic doses) is 2-3%. Besides, the “bioavailability with oral ingestion” value (oral ingestion) is given as “about 2%”.
